Results reported in patent US20260229370A1, “[…] BENEFIT/RISK ASSESSMENT METHOD SUITABLE FOR THE PHYSIOLOGICAL ACTIVITY OF NATURAL MATRICES-BASED […] OR BENEFICIAL PRODUCTS WITH RESPECT TO THAT OF OTHER PRODUCTS WITH PHARMACOLOGICAL OR NUTRACEUTICAL ACTIVITY BASED ON […] MOLECULES” (Bios-Therapy, Physiological Systems for Health S.p.A., priority 2025, published 2026).

Assays:
[1] = In vivo observation of behavioural parameters (risk, side effects) in mouse model; design: species or system mice
Text: (§1) The risk (intended as side effects) was estimated through the observation of behavioural parameters (impacting the behaviour itself, the locomotor system, muscle strength and nervous reflexes) and through the potential weight loss of the animal.
(§2) Data obtained by animal testing, considered in the context of the risk, are behavioural parameters and body weight loss at the end of experimentation.
The behavioural parameters monitored are listed below: • 1. Loss of Spontaneous activity • 2. Loss of Cleaning • 3. Loss of Curiosity • 4. Loss of Reactivity • 5. Loss of Straightening reflex • 6. Loss of Physical strength • 7. Impairment of Palpebral opening • 8. Palpebral reflex • 9. Tremors • 10. Pallor • 11. Stereotypies • 12. Passivity
The values of the parameters 1-8 are normalized as: “Not treated animal value” (always equal to 0)+“Treated animal value”.
The values of the parameters 9-12 are normalized as: “Not treated animal value”−“Treated animal value”.
(§3) The benefit (intended as therapeutic activity) was instead evaluated by taking into consideration the reduction in size of the tumour mass compared to the untreated tumour. For this purpose, immunocompromised mice bearing xenografted FaDu head and neck squamous carcinoma cells were included in the study once tumours reached a volume of 100 mm^3. Mice received daily intratumoral injections of EpigenAU/11 and intraperitoneal cisplatin on alternating days.

[2] = In vivo body weight (potential weight loss) at the end of experimentation; design: species or system mice; conditions: mouse
Method: as §1, §2
The potential weight loss of the treated animals was also assessed.” Data were processed using the formula: […]
as §3

[3] = system: xenografted FaDu head and neck squamous carcinoma cells; assay: In vivo tumour mass size in mice bearing xenografted FaDu cells (benefit); conditions: daily intratumoral EpigenAU/11, intraperitoneal cisplatin on alternating days; treated day 27; vehicle 1.38
Method: Data obtained by animal testing, considered in the context of benefit, is the tumour mass size reached at the end of in vivo test for each treatment.
Data were calculated as “Reduction in the size of tumour mass” by the formula:
1−[“Tumour mass size collected from treated animals (day of observation: 27)/Tumour mass size collected from untreated animals (day of observation: 19)]
as §3

SMILES: N.N.[Cl][Pt][Cl] [Cisplatin]
- Cleaning (Behaviour), Mean [1]: 2.90
- Curiosity (Behaviour), Mean [1]: 2.60
- Pallor (Nervous system), Mean [1]: 2.00
- Palpebral opening (Nervous system), Mean [1]: 2.00
- Palpebral reflex (Nervous system), Mean [1]: 2.80
- Passivity (Behaviour), Mean [1]: 1.60
- Physical strenght (Muscle), Mean [1]: 2.70
- Reactivity (Behaviour), Mean [1]: 2.20
- Spontaneous activity (Behaviour), Mean [1]: 2.50
- Stereolipies (Locomotor system), Mean [1]: 0.00
- Straightening reflex (Locomotor system), Mean [1]: 2.60
- Tremors (Nervous system), Mean [1]: 0.80
- Body weight (Nutritional and metabolic system), Mean [2]: 29.12
- Size of tumor masses (Tumor viability), Mean [3]: 0.50
